Results: patent US3963716A, “Novel 1-phthalazone derivative, a process for its preparation and a pharmaceutical composition containing it” (priority 1973, dated 1976)
Like-named read-outs stand apart in the source and are kept apart here.

Columns and labels:
in vivo = conditions: mouse, oral, mice
aorta of rabbits = assay: prevention of cholesterol-induced atherosclerosis in rabbits (surface covered by fatty streaks in the aorta); assay type: in vivo, albino rabbits; conditions: rabbit aorta; oral 1 mg/Kg daily, 15 weeks, diet with 1% cholesterol; placebo 54.6±5.4
Method: Forty healthy albino rabbits of the same age and of the same family were used in the experiment.
After the completion of the regimen, the rabbits were killed and the percentage of the surface covered by fatty streaks was measured in each aorta of the rabbits stained with Sundan IV. The percent of the surface covered by fatty streaks in the aorta of the rabbits was measured by the procedure described in T. Shimamoto, F. Numano, T. Fujita; American Heart Journal, 71, 2216 (1966).

[1] = tested on: spontaneously hypertensive rats; assay: hypotensive effect in spontaneously hypertensive rats; assay type: in vivo, rat; conditions: for hypotensive effect (in words): intraperitoneal or oral doses up to 50 mg/Kg
Description: The present compounds have a unique hypotensive effect in spontaneously hypertensive rats. The spontaneously hypertensive rats, abbreviated as SH rats, are produced by selective breeding of spontaneously hypertensive rats and continuous inbreeding with hypertensive mates, and they might be acknowledged as genetically hypertensive. It is believed that SH rats have a striking similarity to human essential hypertension and their reactions can be extrapolated to this morbid condition.
In the blood pressure test, SH rats weighing 210 - 250 g and aged 13-15 weeks were used, and the compounds tested were administered intraperitoneally. Each value in the Table V hows an average figure for three rats.

human platelet = human platelet aggregation in vitro induced by ADP or adrenaline (CPRP); assay type: cell-based; conditions: 200 s
Method: Samples of human CPRP (citrated platelet-rich plasma) were incubated at 37°C. for 200 sec. with 1/10 volume of saline containing various amount of the compound to be tested. To the mixture was then added ADP (3μMole) or adrenaline (1 μg/ml). Intensity of primary and secondary aggregation was measured with a platelet aggregation meter (Chrono-Log, Model 300).
Intensity of ADP- or adrenaline-induced aggregation of each sample, which was incubated with the compound, was compared with that of the same sample incubated with saline. The ratio was expressed as a percentage of intensity of aggregation with the compound against one with saline.
The intensity of primary and secondary aggregation of platelets was measured by the procedure described in H. Yamazaki, T. Sano, et al.; title[Platelet Functions in Thromboembolic Disorders] Thrombosis et Diatheses Haemorrhagica "in press" and the references cited therein.

[2] = tested on: cyclic AMP phosphodiesterase; assay: inhibition of cyclic AMP phosphodiesterase, human platelet; assay type: biochemical; conditions: 50% inhibition of cyclic AMP phosphodiesterase; read-out: I50, Platelet (human)
Method: (§1) The procedure of the experiment was carried out in accordance with the method described in H. Hidaka and M. Shibuya: title "A new assay of cyclic nucleotide phosphodiesterase and its application to humans", Biochemical Medicine, (in press).

[3] = target: cyclic AMP phosphodiesterase; assay: inhibition of cyclic AMP phosphodiesterase, aortic wall media (rabbit); assay type: biochemical; conditions: 50% inhibition of cyclic AMP phosphodiesterase; read-out: I50, Aortic Wall, Media (rabbit)
Method: as §1

[4] = target: cyclic AMP phosphodiesterase; assay: inhibition of cyclic AMP phosphodiesterase, aortic wall intima (rabbit); assay type: biochemical; conditions: 50% inhibition of cyclic AMP phosphodiesterase; read-out: I50, Aortic Wall, Intima (rabbit)
Method: as §1

aortic wall of rabbits = assay: regression of preestablished cholesterol-induced atherosclerosis in rabbits (cholesterol content of the aortic wall); assay type: in vivo, albino rabbits; conditions: oral 1 mg/Kg daily, head prints (μg)
Description: For the regressive test, 50 healthy albino rabbits were fed with a diet containing 1% cholesterol for 15 weeks. Five rabbits were killed at the 15th week of the cholesterol feeding and the remaining 45 rabbits were divided into 3 groups. […] Five each of the rabbits of the 3 groups were killed after 6, 10 and 20 weeks, respectively. The total contents of cholesterol in the aortic wall were estimated by gas chromatography, the results of which are shown in the Table III.
1. The total content of cholesterol in the aortic wall was measured by the procedure described in T. Shimamoto, F. Numano, T. Fujita et al.; Asian med. Journal, 8. 12 (1965) 2. […] 3. The total chloesterol contents indicated in Table III were shown in μg per one mg of the dried aortic wall. The value in the Table is the average figure for 5 rabbits

[5] = 50 mg/Kg intraperitoneally, 1 hr
[6] = 50 mg/Kg intraperitoneally, 3 hr
[7] = 50 mg/Kg intraperitoneally, 6 hr
[8] = 50 mg/Kg intraperitoneally, 24 hr
[9] = 50 mg/Kg intraperitoneally, 48 hr
[10] = 50 mg/Kg intraperitoneally, before dosing
[11] = 40 μg/ml, intensity with compound vs saline, read-out: Inhibition ratio, primary aggregation, ADP 3 μM
[12] = 40 μg/ml, intensity with compound vs saline, read-out: Inhibition ratio, secondary aggregation, ADP 3 μM
[13] = 80 μg/ml, intensity with compound vs saline, read-out: Inhibition ratio, primary aggregation, ADP 3 μM
[14] = 80 μg/ml, intensity with compound vs saline, read-out: Inhibition ratio, secondary aggregation, ADP 3 μM
[15] = read-out: Inhibition ratio, primary aggregation, Adrenaline 1μg/ml
[16] = read-out: Inhibition ratio, secondary aggregation, Adrenaline 1μg/ml
[17] = 3.1 mg/Kg intraperitoneally, 1 hr
[18] = 3.1 mg/Kg intraperitoneally, 3 hr
[19] = 3.1 mg/Kg intraperitoneally, 6 hr
[20] = 3.1 mg/Kg intraperitoneally, 24 hr
[21] = 3.1 mg/Kg intraperitoneally, 48 hr
[22] = 12.5 mg/Kg intraperitoneally, 1 hr
[23] = 12.5 mg/Kg intraperitoneally, 3 hr
[24] = 12.5 mg/Kg intraperitoneally, 6 hr
[25] = 12.5 mg/Kg intraperitoneally, 24 hr
[26] = 12.5 mg/Kg intraperitoneally, 48 hr
[27] = 5 μg/ml, intensity with compound vs saline, read-out: Inhibition ratio, primary aggregation, ADP 3 μM
[28] = 5 μg/ml, intensity with compound vs saline, read-out: Inhibition ratio, secondary aggregation, ADP 3 μM
[29] = 10 μg/ml, intensity with compound vs saline, read-out: Inhibition ratio, primary aggregation, ADP 3 μM
[30] = 10 μg/ml, intensity with compound vs saline, read-out: Inhibition ratio, secondary aggregation, ADP 3 μM
[31] = 20 μg/ml, intensity with compound vs saline, read-out: Inhibition ratio, primary aggregation, ADP 3 μM
[32] = 20 μg/ml, intensity with compound vs saline, read-out: Inhibition ratio, secondary aggregation, ADP 3 μM

SMILES: O=c1[nH]nc(CO)c2ccccc12 [4-hydroxymethyl-1-phthalazone]
- LD50 (in vivo): 4000 mg/kg
- Percent of surface covered by fatty streaks (aorta of rabbits): 36.8±5.2%
- Blood Pressure [1, 5]: 178
- Blood Pressure [1, 6]: 179
- Blood Pressure [1, 7]: 180
- Blood Pressure [1, 8]: 182
- Blood Pressure [1, 9]: 184
- Blood Pressure [1, 10]: 183
- hypotensive effect (in words) [1]: did not exhibit a significant hypotensive effect
- activity at 40 µg/mL (human platelet; [11]): 86.2 ± 2.5%
- activity at 40 µg/mL (human platelet; [12]): 72 ± 6.8%
- activity at 80 µg/mL (human platelet; [13]): 82.4 ± 3.2%
- activity at 80 µg/mL (human platelet; [14]): 64.9 ± 6.7%
- activity at 300 µg/mL (human platelet; 300 μg/ml, intensity with compound vs saline, read-out: Inhibition ratio, primary aggregation, ADP 3 μM): 84.5 ± 2%
- activity at 300 µg/mL (human platelet; 300 μg/ml, intensity with compound vs saline, read-out: Inhibition ratio, secondary aggregation, ADP 3 μM): 68.3 ± 3.8%
- activity at 40 µg/mL (human platelet; [15]): 98.8 ± 5.9%
- activity at 80 µg/mL (human platelet; [15]): 92.3 ± 6%
- activity at 300 µg/mL (human platelet; [15]): 85.4 ± 3.1%
- activity at 40 µg/mL (human platelet; [16]): 85.9 ± 10.1%
- activity at 80 µg/mL (human platelet; [16]): 69.2 ± 7.2%
- activity at 300 µg/mL (human platelet; [16]): 60.2 ± 8%

SMILES: CCOC(=O)c1c(C)cc2c(CO)n[nH]c(=O)c2c1C [6,8-dimethyl-7-ethoxycarbonyl-4-hydroxymethyl-1-phthalazone]
- IC50 [2]: 4.1 µM
- Percent of surface covered by fatty streaks (aorta of rabbits): 16.2±4.3%
- Blood Pressure [1, 17]: 170
- Depression % (blood pressure) [1, 17]: 1.7%
- Blood Pressure [1, 18]: 138
- Depression % (blood pressure) [1, 18]: 20.2%
- Blood Pressure [1, 19]: 110
- Depression % (blood pressure) [1, 19]: 36.4%
- Blood Pressure [1, 20]: 135
- Depression % (blood pressure) [1, 20]: 22.0%
- Blood Pressure [1, 21]: 150
- Depression % (blood pressure) [1, 21]: 13.3%
- Blood Pressure ([1]; 3.1 mg/Kg intraperitoneally, before dosing): 173
- Blood Pressure [1, 22]: 173
- Depression % (blood pressure) [1, 22]: 1.1%
- Blood Pressure [1, 23]: 155
- Depression % (blood pressure) [1, 23]: 11.4%
- Blood Pressure [1, 24]: 120
- Depression % (blood pressure) [1, 24]: 28.6%
- Blood Pressure [1, 25]: 142
- Depression % (blood pressure) [1, 25]: 18.9%
- Blood Pressure [1, 26]: 155
- Depression % (blood pressure) [1, 26]: 11.4%
- Blood Pressure ([1]; 12.5 mg/Kg intraperitoneally, before dosing): 175
- Blood Pressure [1, 5]: 165
- Depression % (blood pressure) [1, 5]: 2.9%
- Blood Pressure [1, 6]: 132
- Depression % (blood pressure) [1, 6]: 22.4%
- Blood Pressure [1, 7]: 110
- Depression % (blood pressure) [1, 7]: 35.3%
- Blood Pressure [1, 8]: 145
- Depression % (blood pressure) [1, 8]: 14.7%
- Blood Pressure [1, 9]: 152
- Depression % (blood pressure) [1, 9]: 10.6%
- Blood Pressure [1, 10]: 170
- IC50 [3]: 24 µM
- IC50 [4]: 1.6 µM
- activity at 2.5 µg/mL (human platelet; 2.5 μg/ml, intensity with compound vs saline, read-out: Inhibition ratio, primary aggregation, ADP 3 μM): 91.7 ± 8.3%
- activity at 2.5 µg/mL (human platelet; 2.5 μg/ml, intensity with compound vs saline, read-out: Inhibition ratio, secondary aggregation, ADP 3 μM): 96 ± 8.7%
- activity at 5 µg/mL (human platelet; [27]): 93.3 ± 8.9%
- activity at 5 µg/mL (human platelet; [28]): 59.8 ± 11.3%
- activity at 10 µg/mL (human platelet; [29]): 90.6 ± 3.8%
- activity at 10 µg/mL (human platelet; [30]): 49.9 ± 6.9%
- activity at 20 µg/mL (human platelet; [31]): 93.1 ± 8.2%
- activity at 20 µg/mL (human platelet; [32]): 56.2 ± 6.3%
- activity at 40 µg/mL (human platelet; [11]): 68.5 ± 5.2%
- activity at 40 µg/mL (human platelet; [12]): 41.9 ± 2.2%
- activity at 2.5 µg/mL (human platelet; [15]): 88.5 ± 3.1%
- activity at 5 µg/mL (human platelet; [15]): 82.4 ± 3%
- activity at 10 µg/mL (human platelet; [15]): 89.1 ± 7.3%
- activity at 20 µg/mL (human platelet; [15]): 97.5 ± 7.5%
- activity at 2.5 µg/mL (human platelet; [16]): 52.8 ± 7.5%
- activity at 5 µg/mL (human platelet; [16]): 52.4 ± 7.3%
- activity at 10 µg/mL (human platelet; [16]): 57.1 ± 16%
- activity at 20 µg/mL (human platelet; [16]): 99.6 ± 13.2%
- Cholesterol content (aortic wall, total) (aortic wall of rabbits; 6 weeks, placebo 32.1±3.6): 20.8±3.1 μg/mg dry weight
- Cholesterol content (aortic wall, total) (aortic wall of rabbits; 10 weeks, placebo 33.8±3.0): 9.7±4.2 μg/mg dry weight
- Cholesterol content (aortic wall, total) (aortic wall of rabbits; 20 weeks, placebo 29.5±5.4): 4.2±1.8 μg/mg dry weight

SMILES: CCOC(=O)c1ccc2c(CO)n[nH]c(=O)c2c1 [7-ethoxycarbonyl-4-hydroxymethyl-1-phthalazone]
- IC50 [2]: 57 µM
- LD50 (in vivo): 5000 mg/kg
- Percent of surface covered by fatty streaks (aorta of rabbits): 28.8±3.6%
- Blood Pressure [1, 5]: 165
- Blood Pressure [1, 6]: 176
- Blood Pressure [1, 7]: 180
- Blood Pressure [1, 8]: 179
- Blood Pressure [1, 9]: 184
- Blood Pressure [1, 10]: 178
- hypotensive effect (in words) [1]: did not exhibit a significant hypotensive effect
- IC50 [3]: 144 µM
- IC50 [4]: 52 µM
- activity at 5 µg/mL (human platelet; [27]): 90.5 ± 5.6%
- activity at 5 µg/mL (human platelet; [28]): 84.9 ± 6.3%
- activity at 10 µg/mL (human platelet; [29]): 81.9 ± 5.2%
- activity at 10 µg/mL (human platelet; [30]): 67.1 ± 6.3%
- activity at 20 µg/mL (human platelet; [31]): 77 ± 5.1%
- activity at 20 µg/mL (human platelet; [32]): 58.6 ± 7.6%
- activity at 80 µg/mL (human platelet; [13]): 62.9 ± 5%
- activity at 80 µg/mL (human platelet; [14]): 15.7 ± 0.4%
- activity at 5 µg/mL (human platelet; [15]): 106 ± 6.9%
- activity at 10 µg/mL (human platelet; [15]): 97 ± 4.1%
- activity at 20 µg/mL (human platelet; [15]): 92.9 ± 16.9%
- activity at 5 µg/mL (human platelet; [16]): 80.8 ± 13.9%
- activity at 10 µg/mL (human platelet; [16]): 82.1 ± 9.5%
- activity at 20 µg/mL (human platelet; [16]): 71.7 ± 13.5%
- activity at 80 µg/mL (human platelet; [16]): 33 ± 7.1%
- Cholesterol content (aortic wall, total) (aortic wall of rabbits; 6 weeks, placebo 32.1±3.6): 24.6±3.0 μg/mg dry weight
- Cholesterol content (aortic wall, total) (aortic wall of rabbits; 10 weeks, placebo 33.8±3.0): 12.2±3.5 μg/mg dry weight
- Cholesterol content (aortic wall, total) (aortic wall of rabbits; 20 weeks, placebo 29.5±5.4): 6.4±2.7 μg/mg dry weight
